Values quoted from earlier work as cited in patent publication US20040077556A1, “Compositions and methods for promoting weight loss, thermogenesis, appetite suppression, lean muscle mass, increasing metabolism and boosting energy levels, and use as a dietary supplement in mammals” (priority 2002, published 2004).
Where two headings read alike, the source gives them in different places.

Tests used:
[1] = test system: brown adipose tissue thermogenesis
[2] = cold-exposed rats

O=C(O[C@@H]1Cc2c(O)cc(O)cc2O[C@@H]1c1cc(O)c(O)c(O)c1)c1cc(O)c(O)c(O)c1 [EGCG, (2R,3R)-2-(3,4,5-Trihydroxyphenyl)-3,4-dihydro-1[2H]-benzopyran-3,5,7-triol 3-(3,4,5-trihydroxybenzoate)]
increase in thermogenesis ([1]; EGCG alone, 200 μM): 40% | effect on thermogenesis ([1]; EGCG alone, 50 and 100 μM): no effect

O=c1c(O)c(-c2ccc(O)c(O)c2)oc2cc(O)cc(O)c12 [quercetin, 3,3′,4′,5-7-pentahydroxyflavone]
increase in cAMP (cAMP): dose-dependent increase

Cn1c(=O)c2c(ncn2C)n(C)c1=O [caffeine]
effect on thermogenesis ([1]; caffeine alone): little or no effect

O=c1c(O)c(-c2ccc(O)c(O)c2)oc2cc(O)ccc12 [Fisetin, 3,3′,4′,7-tetrahydroxyflavone]
increase in cAMP (cAMP): dose-dependent increase

Cn1c(=O)c2[nH]cnc2n(C)c1=O.NCCN [aminophylline, theophylline ethylenediamine]
increase of maximum thermogenesis ([2]; fed): 14.4% | increase of maximum thermogenesis ([2]; unfed): 19.4% | noradrenaline-stimulated thermogenesis after pretreatment ([2]; unfed, to levels seen in fed rats, dropped 18.2 percent without pretreatment): restored

NCCc1ccccc1 [PEA, phenylethylamine]
decrease of food intake (15 mg per kg of bodyweight per day): roughly one-third | maximum reduction of food intake (50 mg per kg of bodyweight): roughly twenty | reduction of food intake (15-50 mg per kg of bodyweight): 20-30% | tolerance to appetite-reducing effect (after four weeks): no tolerance
